According to BigSolDB 2.1:

Cc1cnc(NC(=O)C2=C(O)c3ccccc3S(=O)(=O)N2C)s1
solubility (mole fraction)
Details | 293.15 K | 298.15 K | 303.15 K | 308.15 K | 313.15 K
in transcutol | 0.0012 | 0.0013 | 0.0014 | 0.00151 | 0.00165
in water | 1.09e-06 | 1.14e-06 | 1.19e-06 | 1.26e-06 | 1.33e-06
